Reference: the NIST ThermoML archive (doi:10.1021/je060271a)

Settings: Liquid, Vibrating tube method

CCCCCC(=O)OCC(COC(=O)CCCCC)(COC(=O)CCCCC)COC(=O)CCCCC [pentaerythritol tetrahexanoate]
Settings	mass density [kg/m3]
303.17 K, 1567.2 kPa	989.3
303.17 K, 1583.5 kPa	989.4
303.17 K, 1597.3 kPa	989.4
303.17 K, 1611.3 kPa	989.4
303.17 K, 1628.3 kPa	989.5
303.17 K, 5535.7 kPa	992
303.17 K, 5553.1 kPa	991.9
303.17 K, 5573.9 kPa	992
303.17 K, 17353 kPa	999.2
303.17 K, 32996 kPa	1008
303.17 K, 33019 kPa	1007.9
303.17 K, 33039 kPa	1007.9
303.17 K, 33058 kPa	1008
303.17 K, 33082 kPa	1008.1
303.17 K, 33102 kPa	1007.9
303.17 K, 33125 kPa	1008
303.17 K, 33145 kPa	1008
303.17 K, 33165 kPa	1007.9
323.14 K, 384.5 kPa	973
323.14 K, 386.4 kPa	972.9
323.14 K, 388.7 kPa	972.8
323.14 K, 391.1 kPa	972.8
323.14 K, 393.7 kPa	972.9
323.14 K, 396.7 kPa	972.9
323.14 K, 398.7 kPa	973
323.14 K, 401.3 kPa	973
323.14 K, 403.6 kPa	972.9
323.14 K, 406.6 kPa	972.9
323.14 K, 408.8 kPa	972.9
323.14 K, 411.4 kPa	973
323.14 K, 414.9 kPa	972.9
323.14 K, 417.5 kPa	972.8
323.14 K, 420.5 kPa	972.9
323.14 K, 423.2 kPa	973
323.14 K, 426 kPa	972.9
323.14 K, 429.2 kPa	972.9
323.14 K, 431.6 kPa	972.9
323.14 K, 434.7 kPa	973.1
323.14 K, 438 kPa	972.9
323.14 K, 440.8 kPa	972.9
323.14 K, 477.3 kPa	972.9
323.14 K, 481.1 kPa	973
323.14 K, 484.4 kPa	972.9
323.14 K, 488.9 kPa	972.9
323.14 K, 492.6 kPa	973
323.14 K, 495.7 kPa	973
323.14 K, 499.5 kPa	973
323.14 K, 503.9 kPa	973
323.14 K, 507.5 kPa	973.1
323.14 K, 512.4 kPa	973.1
323.14 K, 516.2 kPa	973
323.14 K, 645.8 kPa	973.2
323.14 K, 648.1 kPa	973.1
323.14 K, 650 kPa	973
323.14 K, 652.6 kPa	973.1
323.14 K, 654.5 kPa	973.1
323.14 K, 657.1 kPa	972.9
323.14 K, 686.8 kPa	973.3
323.14 K, 689.8 kPa	973
323.14 K, 692.2 kPa	973.1
323.14 K, 694.8 kPa	973.3
323.14 K, 697.1 kPa	973.2
323.14 K, 763.3 kPa	973.2
323.14 K, 801.5 kPa	973.1
323.14 K, 803.8 kPa	973.2
323.14 K, 807.1 kPa	973.2
323.14 K, 809.5 kPa	973.2
323.14 K, 812.1 kPa	973.3
323.14 K, 858.7 kPa	973.2
323.14 K, 862.3 kPa	973.3
323.14 K, 865.1 kPa	973.2
323.14 K, 867.7 kPa	973.2
323.14 K, 916.7 kPa	973.3
323.14 K, 923.3 kPa	973.2
323.14 K, 1440.1 kPa	973.7
323.14 K, 1446.1 kPa	973.7
323.14 K, 1451.7 kPa	973.5
323.14 K, 1458.6 kPa	973.7
323.14 K, 1465.1 kPa	973.6
323.14 K, 1499.4 kPa	973.7
323.14 K, 2143.7 kPa	974.1
323.14 K, 2154.2 kPa	974.2
323.14 K, 2163.4 kPa	974.2
323.14 K, 2899 kPa	974.7
323.14 K, 2935.4 kPa	974.6
323.14 K, 2971.1 kPa	974.8
323.14 K, 2984.1 kPa	974.9
323.14 K, 2995.2 kPa	974.8
323.14 K, 3008.5 kPa	974.8
323.14 K, 3019.8 kPa	974.7
323.14 K, 3032.8 kPa	974.8
323.14 K, 3043.7 kPa	974.8
323.14 K, 3057.4 kPa	974.8
323.14 K, 3071.1 kPa	974.7
323.14 K, 3082.4 kPa	974.9
323.14 K, 3093.6 kPa	974.9
323.14 K, 3107.5 kPa	974.7
323.14 K, 3120.8 kPa	974.9
323.14 K, 3132.5 kPa	975
323.14 K, 3143.7 kPa	975
323.14 K, 3157.8 kPa	974.8
323.14 K, 3169 kPa	974.9
323.14 K, 3182.6 kPa	974.9
323.14 K, 3194.3 kPa	974.9
323.14 K, 3207.9 kPa	974.9
323.14 K, 3219.3 kPa	975.1
323.14 K, 3233.3 kPa	974.9
323.14 K, 3245.1 kPa	974.9
323.14 K, 3259.7 kPa	974.9
323.14 K, 3271.8 kPa	975
323.14 K, 3285.5 kPa	975
323.14 K, 3298 kPa	974.9
323.14 K, 3312.4 kPa	975
323.14 K, 3324.7 kPa	975.1
323.14 K, 3339.9 kPa	975.1
323.14 K, 3353.1 kPa	975
323.14 K, 3384.1 kPa	975
323.14 K, 3463.3 kPa	975.1
323.14 K, 3495.4 kPa	975.1
323.14 K, 4052.6 kPa	975.6
323.14 K, 4071.6 kPa	975.6
323.14 K, 4087 kPa	975.6
323.14 K, 4103.5 kPa	975.6
323.14 K, 4122.2 kPa	975.5
323.14 K, 4176.9 kPa	975.4
323.14 K, 4193.2 kPa	975.6
323.14 K, 4530.6 kPa	975.9
323.14 K, 4548.8 kPa	975.8
323.14 K, 4570.3 kPa	975.9
323.14 K, 4588.6 kPa	975.9
323.14 K, 4610.6 kPa	976
323.14 K, 4632.6 kPa	975.9
323.14 K, 4650.7 kPa	976
323.14 K, 4669.3 kPa	975.9
323.14 K, 4691.8 kPa	975.9
323.14 K, 4714.6 kPa	975.9
323.14 K, 4733.6 kPa	976
323.14 K, 4753.2 kPa	975.9
323.14 K, 4776.2 kPa	975.9
323.14 K, 4795.8 kPa	976.1
323.14 K, 4819.1 kPa	975.9
323.14 K, 4838.9 kPa	976.1
323.14 K, 4862.6 kPa	976.2
323.14 K, 4886.4 kPa	976.1
